Data as given in patent US20260076948A1, “TREATMENT OF DIABETIC RETINOPATHY USING ENDOTHELIN RECEPTOR ANTAGONISTS” (Perfuse Therapeutics, Inc., priority 2019, published 2026).
“Also recorded” adds a separate entry of the source.

How the values were obtained:
[1] = system: Morrison's rat model of glaucoma (elevated IOP); assay: Morrison's rat model of glaucoma (RGC counts, PERG); format: in vivo, Brown Norway rats; details: topical eye drops 100 μg per dose, five days a week, four weeks
Source text: Adult male and female retired breeder Brown Norway rats (approximate age groups of 8 to 11 months) were obtained from Envigo (Indianapolis, IN). Baseline IOP measurements and pattern electroretinogram (PERG) amplitudes were collected prior to the surgery for elevation of IOP (to ensure that the IOP and PERG amplitudes were in the expected range of values). IOP was elevated in one eye (left eye) of the rats, while the corresponding right eyes served as contralateral controls. The Morrison method to elevate IOP in rats was carried out by injection of 50 μL. of hypertonic saline through the episcleral veins to sclerose the trabecular meshwork. IOP was measured twice a week throughout the entire duration of the experiment. […] After detecting an elevation of IOP for two consecutive days, topical administration of eye drops (20 μL (100 μg) per dose of the tested compounds in the IOP elevated eye) was commenced and carried out for five days a week for a total of four weeks. In the 4th week of treatment, PERG analysis was carried out and rats were sacrificed by an overdose of pentobarbital (Fatal-Plus). Aqueous humor was collected from the rat eyes, frozen and shipped for analysis. Retinal flat mounts were prepared, immunostained with the RGC marker, Brn3a antibody and surviving RGCs were counted in two eccentricities (central and peripheral).
For this study, the Morrison's model was used to induce ocular hypertension in adult male retired breeder Brown Norway rats as previously described by Morrison et al., (Morrison J C, Moore C G, Deppmeier L M, Gold B G, Meshul C K, Johnson E C. A rat model of chronic pressure-induced optic nerve damage. Exp Eye Res. 1997; 64(1):85-96).
The immunostained retinal flat mounts were obtained to measure the retinal ganglion cell (RGC) counts. To obtain immunostained retinal flat mounts, the animals were euthanized after the treatments and then their eyes were enucleated. The eye cups were fixed overnight at 4° C. in 4% paraformaldehyde (PFA) and retinal flat mounts were prepared for collecting images. The retinal ganglion cell (RGC) counting was conducted using the images of immunostained retinal flat mounts. The images were uploaded to ImageJ, a photo editor designed for biology research (Rasband, 1997-2018) and the labeled retinal ganglion cells were counted manually in two eccentricities (central and peripheral).
Pattern ERG (PERG) was used to assess the RGC function. […] Briefly, PERG signals were acquired from a DTL-plus electrode placed on the lower part of the corneal surface and the PERG waves were analyzed using the EMWIN software (LKC). The difference between the amplitude of the major positive (P1) and negative (N2) waves were calculated to decipher the PERG amplitude.

Permeability (PAMPA) = format: in vitro ADME; details: PAMPA log Pe and PSA
Source text: (§1) In the above table, the physicochemical data, e.g., solubility, were obtained following standard protocols known in the field (see, e.g., Reis et al., Mini Rev Med Chem., 2010, 10(11):1071-6; Avdeef et al., Expert Opin Drug Metab Toxicol., 2005, 1(2):325-42; Bharate et al., Comb Chem High Throughput Screen., 2016, 19(6):461-9; and Jain et al., J Pharm Biomed Anal., 2013, 86:11-35.); and the biochemical data, i.e., potency for ETA/ETB, were obtained following the protocols known in the field (see, e.g., Kirkby et al., Br J Pharmacol., 2008, 153(6):1105-19; and Maguire et al., Br J Pharmacol., 2014, 171(24):5555-72.).

ETA = target: T1, ETA (Homo sapiens, UniProt P25101); assay: Functional potency for ETA receptor; format: biochemical
T1 sequence (P25101 21-427): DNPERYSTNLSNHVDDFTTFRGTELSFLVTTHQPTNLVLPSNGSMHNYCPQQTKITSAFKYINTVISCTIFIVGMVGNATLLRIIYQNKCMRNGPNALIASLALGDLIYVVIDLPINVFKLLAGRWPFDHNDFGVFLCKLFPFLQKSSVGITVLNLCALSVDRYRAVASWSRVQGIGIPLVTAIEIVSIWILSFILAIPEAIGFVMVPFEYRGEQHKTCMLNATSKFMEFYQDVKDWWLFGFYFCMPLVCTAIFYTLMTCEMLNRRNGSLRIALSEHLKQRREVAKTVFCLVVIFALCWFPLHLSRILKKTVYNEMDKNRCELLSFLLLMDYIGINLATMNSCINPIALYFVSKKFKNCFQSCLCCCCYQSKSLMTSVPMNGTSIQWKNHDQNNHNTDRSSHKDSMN
Source text: as §1

Stability in solid state = format: physicochemical; details: 2 h@125° C.
Source text: as §1

[2] = Pharmacokinetics after topical or oral administration in the rat; format: in vivo, Brown Norway rats
Protocol: After the administrations, the animals (N=2) were euthanized at different time points (e.g. 4 and 8 hours) and tissues were collected for analysis. List of tissues collected include plasma, retina/retinal pigment epithelium (RPE)/choroid, vitreous humor and aqueous humor.

ETA/ETB receptor = details: background statement; cited from earlier work
[3] = Solubility (pH 2, pH 7, ethyl acetate); format: physicochemical
Source text: as §1

CCCCCS(=O)(=O)N(CCC)CCN1C[C@H](c2ccc3c(c2)OCO3)[C@@H](C(=O)O)[C@@H]1c1ccc(OC)c(F)c1 [A-182086, (2R,3R,4S)-4-(2H-1,3-benzodioxol-5-yl)-2-(3-fluoro-4-methoxyphenyl)-1-[2-(N-propylpentane-1-sulfonamido)ethyl]pyrrolidine-3-carboxylic acid]
Pattern electroretinogram (PERG) changes, RGC function [1]: maintained RGC function | Retinal ganglion cell (RGC) counts in the peripheral retina [1]: prevented RGC loss | Permeability, rating in words (Permeability (PAMPA)): Mid-High | Functional potency for ETA and ETB receptors, rating in words (ETA): High potency | Specificity ETA versus ETB, rating in words (ETA; ETA vs ETB): Low specificity | Stability in Solid State, in words (Stability in solid state): unstable | Stability in Solid State, remaining (Stability in solid state): about 87% remaining/ | Ocular exposure after topical administration (retina/RPE/choroid, aqueous humor, vitreous humor) ([2]; eye drop 100 μg, 4 and 8 hours): detected; also recorded: permeate through cornea/sclera and achieve retina exposure | Detection in the retina/RPE/choroid after oral administration ([2]; oral, 50 mg/kg as printed): detectable | Endothelin receptor antagonism, description in words (ETA/ETB receptor): potent dual ETA/ETB receptor antagonist | Solubility in Ethyl Acetate, rating in words ([3]; ethyl acetate): Good | Solubility at pH 2, comparison in words ([3]; pH 2): superior to that of Edonentan
